Reference: patent US20080039319A1, “Fungicidal Mixtures and Novel Triazolopyrimidines” (Basf Aktiengesellschaft, priority 2004, published 2008)

Tests used:
[1] = tested on: Pyrenophora [syn. Drechslera] teres; test: Use Example 4: activity against net blotch of barley caused by Pyrenophora teres, 1-day protective application (first test); format: in vivo; settings: individual active compound
Alternaria solani [2] = test: Comparative Test 1: activity against early blight of tomato caused by Alternaria solani; format: in vivo; settings: individual active compound
Plasmopara viticola = test: Comparative Test 3: activity against Peronospora of grapevines caused by Plasmopara viticola; format: in vivo; settings: individual active compound
Phytophthora infestans = settings: in vivo
Botrytis cinerea = test: Use Example 7: activity against gray mold on bell pepper leaves caused by Botrytis cinerea, protective application; format: in vivo; settings: individual active compound
[3] = tested on: Pyrenophora [syn. Drechslera] teres; test: Use Example 4: net blotch of barley caused by Pyrenophora teres, second test; format: in vivo; settings: individual active compound
[4] = tested on: Erysiphe [syn. Blumeria] graminis forma specialis. Tritici; test: Use Example 5: activity against mildew of wheat caused by Erysiphe [syn. Blumeria] graminis forma specialis tritici, 3-day protective application; format: in vivo, Erysiphe graminis f. sp. tritici; settings: individual active compound
Sphaerotheca fuliginea = test: Use Example 8: activity against mildew on cucumber leaves caused by Sphaerotheca fuliginea, protective application; settings: in vivo
Alternaria solani [5] = test: Use Example 6: activity against early blight of tomato caused by Alternaria solani (second test); format: in vivo; settings: individual active compound

## Fc1ccc([C@]2(Cn3cncn3)O[C@H]2c2ccccc2Cl)cc1 (racemic) [epoxiconazole (A-1), (2RS,3SR)-1-[3-(2-chlorophenyl)-2,3-epoxy-2-(4-fluorophenyl)propyl]-1H-1,2,4-triazole]
[1]; 1.25 ppm in the spray liquor
  Efficacy in % of the untreated control: 0%
[1]; 2.5 ppm in the spray liquor
  Efficacy in % of the untreated control: 20%
[1]; 5 ppm in the spray liquor
  Efficacy in % of the untreated control: 77%

## COCC(=O)N(c1c(C)cccc1C)C(C)C(=O)OC (racemic) [metalaxyl (C-1), methyl N-(methoxyacetyl)-N-(2,6-xylyl)-DL-alaninate]
Alternaria solani [2]; 6.25 ppm in the spray liquor
  Efficacy in % of the untreated control: 0%
Alternaria solani [2]; 50 ppm in the spray liquor
  Efficacy in % of the untreated control: 0%

## CC1CCN(c2c(-c3c(F)cccc3Cl)c(Cl)nc3ncnn23)CC1 [(π)]
Plasmopara viticola; 5 ppm in the spray liquor
  Efficacy in % of the untreated control: 5%
Plasmopara viticola; 10 ppm in the spray liquor
  Efficacy in % of the untreated control: 19%
Phytophthora infestans
  Efficacy in % of the untreated control: 0%
Alternaria solani [2]; 2.5 ppm in the spray liquor
  Efficacy in % of the untreated control: 0%
Alternaria solani [2]; 5 ppm in the spray liquor
  Efficacy in % of the untreated control: 21%
Alternaria solani [2]; 10 ppm in the spray liquor
  Efficacy in % of the untreated control: 44%

## O=C(Nc1ccccc1-c1ccc(Cl)cc1)c1cccnc1Cl [boscalid (L-2), 2-chloro-N-(4′-chlorobiphenyl-2-yl)nicotinamide]
Phytophthora infestans
  Efficacy in % of the untreated control: 0%

## O=C1C2CC=CCC2C(=O)N1SC(Cl)(Cl)Cl (stereo not shown) [captan (P-1), 2-trichloromethylsulfanyl-3a,4,7,7a-tetrahydroisoindole-1,3-dione]
Plasmopara viticola; 12.5 ppm in the spray liquor
  Efficacy in % of the untreated control: 0%
Plasmopara viticola; 50 ppm in the spray liquor
  Efficacy in % of the untreated control: 0%
Botrytis cinerea; 12.5 ppm in the spray liquor
  Efficacy in % of the untreated control: 11%
Botrytis cinerea; 100 ppm in the spray liquor
  Efficacy in % of the untreated control: 56%

## N#Cc1c(Cl)c(Cl)c(Cl)c(C#N)c1Cl [chlorothalonil (Q-1), 2,4,5,6-tetrachloroisophthalonitrile]
[3]; 12.5 ppm in the spray liquor
  Efficacy in % of the untreated control: 0%
[3]; 50 ppm in the spray liquor
  Efficacy in % of the untreated control: 0%
[3]; 100 ppm in the spray liquor
  Efficacy in % of the untreated control: 0%

## COc1ccc(C(=CC(=O)N2CCOCC2)c2ccc(Cl)cc2)cc1OC [dimethomorph (G-1), 3-(4-chlorophenyl)-3-(3,4-dimethoxyphenyl)-1-morpholin4-ylpropenone]
Alternaria solani [2]; 3.125 ppm in the spray liquor
  Efficacy in % of the untreated control: 0%
Alternaria solani [2]; 12.5 ppm in the spray liquor
  Efficacy in % of the untreated control: 0%
Alternaria solani [2]; 25 ppm in the spray liquor
  Efficacy in % of the untreated control: 0%
Alternaria solani [2]; 50 ppm in the spray liquor
  Efficacy in % of the untreated control: 0%

## N#Cc1sc2c(=O)c3ccccc3c(=O)c=2sc1C#N [dithianon (L-3), 5,10-dioxo-5,10-dihydronaphtho[2,3-b][1,4]dithiine-2,3-dicarbonitrile]
Phytophthora infestans
  Efficacy in % of the untreated control: 0%

## CC(Cc1ccc(C(C)(C)C)cc1)CN1CC(C)OC(C)C1 [fenpropimorph (D-1), 4-[3-(4-tert-butylphenyl)-2-methylpropyl]-2,6-dimethylmorpholine]
[4]; 15 ppm in the spray liquor
  Efficacy in % of the untreated control: 0%
[4]; 30 ppm in the spray liquor
  Efficacy in % of the untreated control: 67%

## N#Cc1c[nH]cc1-c1cccc2c1OC(F)(F)O2 [fludioxonil (O-1), 4-(2,2-difluorobenzo[1,3]dioxol-4-yl)-1H-pyrrole-3-carbonitrile]
Sphaerotheca fuliginea
  Efficacy in % of the untreated control: 56%

## OC(Cn1cncn1)(c1ccc(F)cc1)c1ccccc1F (stereo not shown) [flutriafol (A-2), 1-(4-fluorophenyl)-1-(2-fluorophenyl)-2-[1,2,4]triazol-1-ylethanol]
[1]; 1.25 ppm in the spray liquor
  Efficacy in % of the untreated control: 0%
[1]; 2.5 ppm in the spray liquor
  Efficacy in % of the untreated control: 0%
[1]; 5 ppm in the spray liquor
  Efficacy in % of the untreated control: 0%

## CC(C)NC(=O)N1CC(=O)N(c2cc(Cl)cc(Cl)c2)C1=O [iprodione (F-1), N-isopropyl-3-(3,5-dichlorophenyl)-2,4-dioxoimidazolidine-1-carboxamide]
Alternaria solani [5]; 12.5 ppm in the spray liquor
  Efficacy in % of the untreated control: 0%
Alternaria solani [5]; 100 ppm in the spray liquor
  Efficacy in % of the untreated control: 0%
[3]; 12.5 ppm in the spray liquor
  Efficacy in % of the untreated control: 0%
[3]; 50 ppm in the spray liquor
  Efficacy in % of the untreated control: 0%

## CC1(C)CCC(Cc2ccc(Cl)cc2)C1(O)Cn1cncn1 (stereo not shown) [metconazole (A-3), 5-(4-chlorobenzyl)-2,2-dimethyl-1-[1,2,4]triazol-1-ylmethylcyclopentanol]
[1]; 1.25 ppm in the spray liquor
  Efficacy in % of the untreated control: 0%
[1]; 2.5 ppm in the spray liquor
  Efficacy in % of the untreated control: 0%
[1]; 5 ppm in the spray liquor
  Efficacy in % of the untreated control: 0%

## CC(C)OC(=O)c1cc(C(=O)OC(C)C)cc([N+](=O)[O-])c1 [nitrophthal-isopropyl (N-1), diisopropyl 5-nitroisophthalate]
Botrytis cinerea; 12.5 ppm in the spray liquor
  Efficacy in % of the untreated control: 0%
Botrytis cinerea; 100 ppm in the spray liquor
  Efficacy in % of the untreated control: 33%

## COC(=O)N(OC)c1ccccc1COc1ccn(-c2ccc(Cl)cc2)n1 [pyraclostrobin (B-1), methyl N-{2-[1-(4-chlorophenyl)-1H-pyrazol-3-yloxymethyl]phenyl}(N-methoxy)carbamate]
Alternaria solani [5]; 0.3125 ppm in the spray liquor
  Efficacy in % of the untreated control: 22%
Alternaria solani [5]; 0.625 ppm in the spray liquor
  Efficacy in % of the untreated control: 56%

## S1SSSSSSS1 [sulfur (M-1), sulfur]
Botrytis cinerea; 0.3125 ppm in the spray liquor
  Efficacy in % of the untreated control: 22%
Botrytis cinerea; 0.625 ppm in the spray liquor
  Efficacy in % of the untreated control: 56%

## COC(=O)NC(=S)Nc1ccccc1NC(=S)NC(=O)OC [thiophanate-methyl (L-4), dimethyl 1,2-phenylenebis(iminocarbonothioyl)bis(carbamate)]
Alternaria solani [5]; 100 ppm in the spray liquor
  Efficacy in % of the untreated control: 0%
[3]; 6.3 ppm in the spray liquor
  Efficacy in % of the untreated control: 0%
[3]; 100 ppm in the spray liquor
  Efficacy in % of the untreated control: 0%

## manganese ethylenebis(dithiocarbamate) zinc complex [mancozeb (K-1)]
[3]; 6.3 ppm in the spray liquor
  Efficacy in % of the untreated control: 0%
[3]; 12.5 ppm in the spray liquor
  Efficacy in % of the untreated control: 0%
[3]; 50 ppm in the spray liquor
  Efficacy in % of the untreated control: 0%

## zinc ammoniate ethylenebis(dithiocarbamate) [metiram (K-2)]
[3]; 12.5 ppm in the spray liquor
  Efficacy in % of the untreated control: 0%
[3]; 50 ppm in the spray liquor
  Efficacy in % of the untreated control: 0%
[3]; 100 ppm in the spray liquor
  Efficacy in % of the untreated control: 0%
